Data as given in patent publication US6043212A, “Recombinant C140 receptor, its agonists and antagonists, and nucleic acids encoding the receptor” (COR Therapeutics, Inc., priority 1995, dated 2000).
Peptide text beside a SMILES is read from it.

How the values were obtained:
[1] = Hypotensive activity: arterial pressure after injection into rat femoral vein; type: in vivo; details: FIG. 7
Description: The C140 agonist SLIGRL (SEQ ID NO: 23) was injected in 0.2 ml buffer at various concentrations into rat femoral vein and the arterial pressure was monitored.

rat femoral vein = assay: Vasodilation of isolated rat femoral vein contracted with PGF2α (organ bath); details: PGF2α 3×10^-5 M, test substance 10^-5 M
Description: This effect was also shown by observing vasodilation as a result of stimulation of the rat femoral vein with the above agonist. Adult Sprague-Dawley rats were killed by exsanguination during diethylether anesthesia and the femoral vein was removed and dissected free from fat and connective tissue. Circular preparations of the vein were mounted in an organ bath (5 ml) on two L-formed metal holders (0.2 mm diameter). One of the metal holders was screwed into one of the levers of a Grass FTO C force displacement transducer. The bathing liquid was Kreb's Ringer solution containing 118 mM NaCl, 4.7 mM KCl, 2.5 mM CaCl2, 1.2 MM MgSO4, 24.8 mM NaHCO3, 1.2 mM KH2 PO4 and 5.6 mM glucose. The bathing fluid was continuously treated with 88.5% oxygen-11.5% CO2; the temperature was held at 37° C. The endothelium was removed by bubbling CO2 through the vessels. The basal tension was between 7.5 and 12 mN. The preparations were equilibrated for at least 1 hr before application of agonist and control substances.

[2] = target: T1, wild-type mouse C140 receptor (Mus musculus, UniProt P55086); assay: 45Ca release by Xenopus oocytes expressing wild-type mouse C140 receptor; type: cell-based
T1 construct: Native receptors were produced by cloning the coding region of the receptor gene; expressed in transfected cells; host or cells: Xenopus laevis oocytes injected with capped cRNA from pSG-5 C140
T1 sequence (P55086 32-399 limits assumed): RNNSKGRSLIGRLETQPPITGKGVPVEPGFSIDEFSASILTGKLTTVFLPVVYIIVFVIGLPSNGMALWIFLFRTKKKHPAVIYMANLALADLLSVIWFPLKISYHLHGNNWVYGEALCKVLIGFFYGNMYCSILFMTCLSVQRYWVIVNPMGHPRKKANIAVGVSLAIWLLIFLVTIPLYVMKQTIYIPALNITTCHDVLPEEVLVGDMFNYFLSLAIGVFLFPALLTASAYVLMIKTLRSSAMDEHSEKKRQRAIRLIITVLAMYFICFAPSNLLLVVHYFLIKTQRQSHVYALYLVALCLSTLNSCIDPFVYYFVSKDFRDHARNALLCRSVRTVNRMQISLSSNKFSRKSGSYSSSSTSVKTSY
Description: Agonist-induced increases in ^45 Ca release by oocytes expressing cRNA encoding C140 receptor or other recombinant cells producing C140 receptor are assessed by published techniques (Williams, J. A., et al., Proc Natl Acad Sci USA (1988) 85:4939-4943). Briefly, intracellular calcium pools are labeled by incubating groups of 30 oocytes in 300 μl calcium-free modified Barth's solution (MBSH) containing 50 μCi ^45 CaCl2 (10-40 mCi/mg Ca; Amersham) for 4 hours at RT. The labeled oocytes or cells are washed, then incubated in MBSH II without antibiotics for 90 minutes. Groups of 5 oocytes are selected and placed in individual wells in a 24-well tissue culture plate (Falcon 3047) containing 0.5 ml/well MBSH II without antibiotics. This medium is removed and replaced with fresh medium every 10 minutes; the harvested medium is analyzed by scintillation counting to determine ^45 Ca released by the oocytes during each 10-minute incubation. The 10-minute incubations are continued until a stable baseline of ^45 Ca release per unit time is achieved. Two additional 10-minute collections are obtained, then test medium including agonist is added and agonist-induced ^45 Ca release determined.
Oocytes from Xenopus laevis were harvested and prepared using published techniques (Coleman, A., in Hames, B. D., and Higgins, S. J., eds, Transcription and Translation: A Practical Approach, IRL Press, pp. 271-302; Williams, J. A., et al. Proc Natl Acad Sci USA (1988) 85:4939-4943]. To remove follicular cells, oocytes were incubated for 1.5 h with shaking in calcium-free Barth's containing 2 mg/ml each of collagenase 1A and hyaluronidase 1S. The oocytes were then washed five times in regular Barth's and incubated at 18° C. in Barth's medium containing 100 U/ml penicillin, 100 μg/ml streptomycin, and 2.5 mM sodium pyruvate. Stage V oocytes were selected and injected with 30 nl of cRNA (0.33 μg/μl water) or water alone, and then incubated with 0.25 ml of medium in groups of four/well in a 96-well culture plate. After 36 hours the oocytes were incubated with ^45 Ca (250 μCi/ml). After 12 h incubation the oocytes were washed and 0.2 ml of medium added and replaced every five minutes. The harvested medium was analyzed by scintillation counting. After five replacements to determine the baseline release of ^45 Ca, test medium with the agonist, e.g. SLIGRL (SEQ ID NO: 23), was added and the evoked ^45 Ca-release determined.
Oocytes were injected with capped cRNA (ca 10 ng) encoding wild-type mouse C140 receptor (WT) or either of the three mutant receptors 35Pro, 35Arg and 35His. After 36 hours, cRNA-injected and control water-injected, oocytes were loaded with ^45 Ca, and 12 hours thereafter peptide or trypsin-induced ^45 Ca release were determined as described above. The peptide SLIGRL (SEQ ID NO: 23) was added at 100 μM, and trypsin at 300 pM. The stimulation with the peptide was done on the same group of oocytes after the stimulation with trypsin. The data shown in Table 1 represent the mean of three replicate determinations, and denotes the increase compared to oocytes injected with water.
Various peptides were tested at 100 μM in the assay above using wild-type mouse C140 receptor, expressed in oocytes.

C140 receptor = target: T2, C140 receptor (Mus musculus, UniProt P55086); assay: Activation of frog oocytes injected with C140 receptor cRNA by proteases; type: cell-based; details: FIG. 9c
T2 construct: expressed in transfected cells; host or cells: frog oocytes injected with C140 receptor cRNA
T2 sequence (P55086 26-399): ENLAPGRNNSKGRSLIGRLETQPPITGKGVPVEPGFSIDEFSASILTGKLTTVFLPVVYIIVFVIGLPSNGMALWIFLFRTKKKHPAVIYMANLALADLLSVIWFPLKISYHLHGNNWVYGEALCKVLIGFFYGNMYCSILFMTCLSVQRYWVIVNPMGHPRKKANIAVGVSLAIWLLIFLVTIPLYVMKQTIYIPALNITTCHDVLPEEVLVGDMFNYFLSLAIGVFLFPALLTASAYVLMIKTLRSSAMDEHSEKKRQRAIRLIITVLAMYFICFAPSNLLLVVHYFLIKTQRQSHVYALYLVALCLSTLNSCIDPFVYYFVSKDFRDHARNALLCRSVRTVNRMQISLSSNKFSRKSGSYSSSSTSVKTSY
Excerpt: FIGS. 9a and 9b show the ability of plasmin and kallikrein respectively to activate oocytes injected with C140 cRNA (open circles) or water (crosses) as control.

Activation of oocytes injected with C140 receptor cRNA versus substance K receptor cRNA (C140 receptor) | Fold increase in 45Ca ([2]; WT receptor, trypsin at 300 pM, increase compared to water-injected oocytes, mean of three) | Compound | Effect on arterial blood pressure ([1]; 0.2 ml buffer at 0.1 mM into femoral vein) | Effect on arterial blood pressure ([1]; 0.2 ml buffer at 1 mM into femoral vein) | Effect on contraction induced by PGF2α (rat femoral vein; endothelium present, FIG. 8a) | Effect on contraction induced by PGF2α (rat femoral vein; endothelium removed, FIG. 8b) | Fold increase in 45Ca ([2]; Table 2, peptides at 100 μM, wild-type mouse C140 receptor in oocytes) | Fold increase in 45Ca ([2]; WT receptor, peptide at 100 μM, same oocytes after trypsin stimulation, compared to water-injected oocytes)
 |  | CC[C@H](C)[C@H](NC(=O)[C@H](CC(C)C)NC(=O)[C@@H](N)CO)C(=O)NCC(=O)N[C@@H](CCCNC(=N)N)C(=O)N[C@@H](CC(C)C)C(=O)O [SLIGRL] (H-SLIGRL-OH) | appreciable decrease in blood pressure | larger decreases | relaxed | not counteracted | 15 fold | 11 fold
differential effect | 6.6 fold | trypsin |  |  |  |  |  | 
